# Reference: US8163793B2, “Proline derivatives” (Hoffman-La Roche Inc., priority 2009, dated 2012)
# Where a name gives a salt, the structure may show the parent alone.
# Columns and labels:
# Cathepsin S = Cathepsin S (UniProt P25774); assay: Cathepsin enzyme inhibition assay (fluorogenic peptide substrate Z-Val-Val-Arg-AMC), Cathepsin S; type: biochemical, human and mouse; conditions: enzyme 1 nM, substrate 20 μM, pH 6.5; read-out: CatS IC50
# How it was run: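 Human or mouse cathepsin S (1 nM) was run in 100 mM potassium phosphate pH 6.5 with 5 mM EDTA, 0.001% Triton X-100 and 5 mM DTT. The rise in AMC fluorescence from cleavage was measured, and IC50 values were calculated by standard methods and expressed in μM.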
# Cat L = Cat L (UniProt P07711); assay: Cathepsin enzyme inhibition assay (fluorogenic peptide substrate Z-Val-Val-Arg-AMC), Cathepsin L; type: biochemical, human and mouse; conditions: enzyme 1 nM, substrate 20 μM, pH 6.5; read-out: CatL IC50
# How it was run: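 Cathepsin L at 1 nM was mixed with compound, then started with 20 μM Z-Val-Val-Arg-AMC in pH 6.5 potassium phosphate with EDTA, Triton X-100 and 5 mM DTT. AMC fluorescence (ex 360/em 465 nm) was followed over 20 min. IC50 is given in μM.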
Compound,IC50 (Cathepsin S),IC50 (Cat L)
"N#CC1(NC(=O)[C@@H]2C[C@@H](S(=O)(=O)c3ccccc3C(F)(F)F)CN2C(=O)C2CCCCC2)CC1 [Example 104, (2S,4R)-1-Cyclohexanecarbonyl-4-(2-trifluoromethyl-benzenesulfonyl)-pyrrolidine-2-carboxylic acid (1-cyano-cyclopropyl)-amide]",0.2 nM,≥ 25000 nM
"CN1C[C@H](S(=O)(=O)c2ccccc2Cl)C[C@H]1C(=O)N(C)C1(C#N)CC1 [Example 94, (2S,4R)-4-(2-Chloro-benzenesulfonyl)-1-methyl-pyrrolidine-2-carboxylic acid (1-cyano-cyclopropyl)-methyl-amide Formiate]",945 nM,40000 nM
"Cc1cc(N2C[C@H](S(=O)(=O)c3ccc(N4CC(F)(F)C4)cc3Cl)C[C@H]2C(=O)NC2(C#N)CC2)n(CCc2ccccc2)n1 [Example 483, (2S,4R)-4-[2-Chloro-4-(3,3-difluoro-azetidin-1-yl)-benzenesulfonyl]-1-(5-methyl-2-phenethyl-2H-pyrazol-3-yl)-pyrrolidine-2-carboxylic acid (1-cyano-cyclopropyl)-amide]",1.34 nM,521 nM
"CC(C)CS(=O)(=O)[C@H]1CN[C@H](C(=O)NC2(C#N)CC2)C1 [Example 114, (2S,4R)-4-(2-Methyl-propane-1-sulfonyl)-pyrrolidine-2-carboxylic acid (1-cyano-cyclopropyl)-amide Hydrochloride]",3500 nM,≥ 25000 nM
"CC(C)(C)N1CCN(c2ccc(S(=O)(=O)[C@@H]3C[C@@H](C(=O)NC4(C#N)CC4)N(C(=O)C4(C(F)(F)F)CC4)C3)c(Cl)c2)CC1 [Example 296, (2S,4R)-4-[4-(4-tert-Butyl-piperazin-1-yl)-2-chloro-benzenesulfonyl]-1-(1-trifluoromethyl-cyclopropanecarbonyl)-pyrrolidine-2-carboxylic acid (1-cyano-cyclopropyl)-amide]",0.123 nM,1180 nM
"N#CC1(NC(=O)[C@@H]2C[C@@H](S(=O)(=O)c3ccc(-n4cccn4)cc3Cl)CN2C=O)CC1 [Example 148, (2S,4R)-4-(2-Chloro-4-pyrazol-1-yl-benzenesulfonyl)-1-formyl-pyrrolidine-2-carboxylic acid (1-cyano-cyclopropyl)-amide]",16 nM,≥ 25000 nM
"CC(C)(C)c1ccccc1N1CC(S(=O)(=O)c2ccccc2C(F)(F)F)CC1C(=O)NC1(C#N)CC1 (centres unmarked) [Example 355, 1-(2-tert-Butyl-phenyl)-4-(2-trifluoromethyl-benzenesulfonyl)-pyrrolidine-2-carboxylic acid (1-cyano-cyclopropyl)-amide]",2450 nM,≥ 25000 nM
"CC(=O)N1C[C@H](S(=O)(=O)c2ccccc2C(F)(F)F)C[C@H]1C(=O)NC1(C#N)CC1 [Example 101, (2S,4R)-1-Acetyl-4-(2-trifluoromethyl-benzenesulfonyl)-pyrrolidine-2-carboxylic acid (1-cyano-cyclopropyl)-amide]",6.7 nM,≥ 25000 nM
"Cc1cc(N2C[C@H](S(=O)(=O)c3ccccc3Cl)C[C@H]2C(=O)NC2(C#N)CC2)n(CCCc2ccccc2)n1 [Example 474, (2S,4R)-4-(2-Chloro-benzenesulfonyl)-1-[5-methyl-2-(3-phenyl-propyl)-2H-pyrazol-3-yl]-pyrrolidine-2-carboxylic acid (1-cyano-cyclopropyl)-amide]",2.4 nM,1540 nM
"Cc1cc(N2C[C@H](S(=O)(=O)c3ccccc3Cl)C[C@H]2C(=O)NC2(C#N)CC2)n(C2CCCCC2)n1 [Example 477, (2S,4R)-4-(2-Chloro-benzenesulfonyl)-1-(2-cyclohexyl-5-methyl-2H-pyrazol-3-yl)-pyrrolidine-2-carboxylic acid (1-cyano-cyclopropyl)-amide]",0.6 nM,318 nM
"CC(C)(C)OC(=O)N1C[C@@H](S(=O)(=O)c2ccccc2C(F)(F)F)C[C@H]1C(=O)NC1(C#N)CC1 [Example 158, (2S,4S)-2-(1-Cyano-cyclopropylcarbamoyl)-4-(2-trifluoromethyl-benzenesulfonyl)-pyrrolidine-1-carboxylic acid tert.-butyl ester]",120 nM,≥ 25000 nM
"N#CC1(NC(=O)[C@@H]2C[C@@H](S(=O)(=O)c3ccccc3C(F)(F)F)CN2C(=O)C(F)(F)F)CC1 [Example 102, (2S,4R)-1-(2,2,2-Trifluoro-acetyl)-4-(2-trifluoromethyl-benzenesulfonyl)-pyrrolidine-2-carboxylic acid (1-cyano-cyclopropyl)-amide]",3.6 nM,≥ 25000 nM
"N#CC1(NC(=O)C2CC(S(=O)(=O)c3ccccc3C(F)(F)F)CN2C2CCOCC2)CC1 (centres unmarked) [Example 362, 1-(Tetrahydro-pyran-4-yl)-4-(2-trifluoromethyl-benzenesulfonyl)-pyrrolidine-2-carboxylic acid (1-cyano-cyclopropyl)-amide]",380 nM,≥ 25000 nM
"N#CC1(NC(=O)[C@@H]2C[C@@H](S(=O)(=O)c3ccccc3Cl)CN2C(=O)C2CCCCC2)CC1 [Example 77, (2S,4R)-4-(2-Chloro-benzenesulfonyl)-1-cyclohexanecarbonyl-pyrrolidine-2-carboxylic acid (1-cyano-cyclopropyl)-amide]",0.2 nM,8250 nM
"CC(C)(C)c1ccc([C@@H]2N[C@](CCS(=O)(=O)c3ccccc3)(C(=O)NC3(C#N)CC3)C[C@H]2S(=O)(=O)c2ccccc2)cc1 [Example 441, (2S,4R,5S)-5-(4-tert-butylphenyl)-N-(1-cyanocyclopropyl)-4-(phenylsulfonyl)-2-(2-(phenylsulfonyl)ethyl)pyrrolidine-2-carboxamide]",85.5 nM,≥ 25000 nM
"CCN1CCN(c2ccc(S(=O)(=O)[C@@H]3C[C@@H](C(=O)NC4(C#N)CC4)N(c4ncccc4C(F)(F)F)C3)c(Cl)c2)CC1 [Example 190, (2S,4R)-4-[2-Chloro-4-(4-ethyl-piperazin-1-yl)-benzenesulfonyl]-1-(3-trifluoromethyl-pyridin-2-yl)-pyrrolidine-2-carboxylic acid (1-cyano-cyclopropyl)-amide]",1.5 nM,5160 nM
"N#CC1(NC(=O)[C@@H]2C[C@@H](S(=O)(=O)c3ccccc3Cl)CN2C(=O)CC(F)(F)F)CC1 [Example 219, (2S,4R)-4-(2-Chloro-benzenesulfonyl)-1-(3,3,3-trifluoro-propionyl)-pyrrolidine-2-carboxylic Acid (1-cyano-cyclopropyl)-amide]",0.3 nM,12600 nM
"N#CCNC(=O)[C@@H]1C[C@@H](S(=O)(=O)c2ccccc2Cl)CN1C(=O)C1CCCCC1 [Example 60, (2S,4R)-4-(2-Chloro-benzenesulfonyl)-1-cyclohexanecarbonyl-pyrrolidine-2-carboxylic acid cyanomethyl-amide]",0.5 nM,12800 nM
"N#CC1(NC(=O)[C@@H]2C[C@@H](S(=O)(=O)c3ccc(OCC(F)(F)F)cc3Cl)CN2C(=O)C2(c3cccc(Br)c3)CC2)CC1 [Example 332, (2S,4R)-1-[1-(3-Bromo-phenyl)-cyclopropanecarbonyl]-4-[2-chloro-4-(2,2,2-trifluoro-ethoxy)-benzenesulfonyl]-pyrrolidine-2-carboxylic acid (1-cyano-cyclopropyl)-amide]",0.195 nM,580 nM
